For 5 molecules, EC50 results are on record in patent US11382956B2, “Amylin analogues” (Zealand Pharma A/S, priority 2016, dated 2022).

Numbered stars: 1 amine (or outer) side, 2 acyl side, 3 side chain; on linkers, the order of the positions; unused ones are H or OH. Bridge positions count the residues as written; N and C are the ends. Square brackets hold non-standard residues; d marks the D form. Peptide text beside a SMILES is read from it. * marks the point of attachment. C20 diacid = O=C(O)CCCCCCCCCCCCCCCCCCC(=O)*; γGlu = O=C(O)[C@H](CCC(=O)[*:2])N[*:1]; Hyp = O=C(O)[C@@H]1C[C@@H](O)CN1; NMeI = CC[C@H](C)[C@H](NC)C(=O)O; Aad = N[C@@H](CCCC(=O)O)C(=O)O; Orn = NCCC[C@H](N)C(=O)O; Sar = CNCC(=O)O

Assay [1] has as its target T1, recombinant human calcitonin receptor (hCT-R) (Homo sapiens, UniProt P30988).
T1 construct: host or cells: human astrocytoma cell line 1321N1
T1 sequence (P30988 25-474): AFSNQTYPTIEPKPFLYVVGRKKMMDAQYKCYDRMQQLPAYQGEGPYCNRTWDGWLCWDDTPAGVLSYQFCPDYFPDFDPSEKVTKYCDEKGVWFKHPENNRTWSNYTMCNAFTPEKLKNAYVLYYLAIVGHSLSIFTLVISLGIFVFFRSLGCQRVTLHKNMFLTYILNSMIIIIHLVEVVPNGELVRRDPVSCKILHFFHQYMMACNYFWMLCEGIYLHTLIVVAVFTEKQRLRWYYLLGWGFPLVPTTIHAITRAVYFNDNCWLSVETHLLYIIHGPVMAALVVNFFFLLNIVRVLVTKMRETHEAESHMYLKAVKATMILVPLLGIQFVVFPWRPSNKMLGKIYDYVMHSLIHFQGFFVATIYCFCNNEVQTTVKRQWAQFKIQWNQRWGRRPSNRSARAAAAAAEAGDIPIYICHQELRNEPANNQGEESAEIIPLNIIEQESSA
Kind of assay: hCT-R cAMP assay (AlphaScreen) in 1321N1 cells. To be noted: cAMP formation, 45 min stimulation. In kind it is cell-based. An excerpt:
(§1) For the assessment of the in vitro activity of test peptides, cell lines expressing recombinant human calcitonin receptor (hCT-R) or recombinant human amylin 3 receptor (hAMYR3) in the background of the human astrocytoma cell line 1321N1 were purchased from DiscoveRx Corporation (Cat. No. 95-016106 and 95-0166C6). The hAMYR3 is a hetero-oligomer of the calcitonin receptor (Isoform 2; Gene ID 799) and RAMPS (Gene ID 10268) that forms when both genes are expressed in the same cell. The hCT-R cell line expresses only the recombinant human calcitonin receptor gene (Isoform 2; Gene ID 799). Upon activation of hCT-R or hAMYR3 by the test peptides the formation of cAMP is induced and was measured using the AlphaScreen® cAMP Assay kit from Perkin-Elmer (Cat. No. 6760635R).
(§2) Briefly, 1321N1 cells expressing hCT-R or hAMYR3 were seeded in 384-well microtiter plates (Falcon Optilux White, Cat.-No. 10448642) at 5,000 cells in […] growth medium per well (AssayComplete 1321N1 Cell Culture Kit, DiscoveRx Corp.), and incubated for 24 h at 37° C., 5% CO2. On the day of analysis growth medium was removed and the cells were stimulated by adding 10 μL of stimulation buffer (10 […], 0.1% BSA) containing increasing concentrations of test peptides, and incubation for 45 min at room temperature. The stimulation was stopped by adding 5.6 μL/well donor bead detection mix (5 mM Hepes pH7.4, 0.5% TWEEN 20, 0.1% BSA, 0.05 mg/mL donor beads, 62.5 nM biotinylated cAMP) and 4.5 μL/well acceptor bead solution (5 mM Hepes pH7.4, 0.5% TWEEN 20, 0.1% BSA, 0.05 mg/mL acceptor beads). After thorough mixing the plates were incubated in the dark for 1 h at room temperature and the cAMP content of the resulting cell lysates was estimated according to the AlphaScreen® cAMP Assay manufacturer's instructions. EC50 values were estimated by computer-aided curve fitting of results of at least 7 different compound concentrations.
(In general: Changes in cAMP serve as a functional read-out for many G protein-coupled receptors.)

The target of assay [2] is T2, recombinant human amylin 3 receptor (hAMYR3) (Homo sapiens, UniProt O60896+P30988).
T2 construct: host or cells: human astrocytoma cell line 1321N1
T2 sequence (P30988 25-474): T1 sequence (P30988 25-474)
T2 sequence (O60896 24-148 partner): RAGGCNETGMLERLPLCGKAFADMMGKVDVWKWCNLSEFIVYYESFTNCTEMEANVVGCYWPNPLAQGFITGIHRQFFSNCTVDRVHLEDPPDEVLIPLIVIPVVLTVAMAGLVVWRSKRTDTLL
As to the kind of experiment: hAMYR3 cAMP assay (AlphaScreen) in 1321N1 cells. Conditions: cAMP formation, 45 min stimulation. The class given is cell-based.
Source text: as §1, §2

Consider `CC[C@H](C)[C@@H](C(=O)N[C@@H](CC(C)C)C(=O)N[C@@H](CO)C(=O)N[C@@H](CO)C(=O)N[C@H](C(=O)N[C@@H](CCC(=O)O)C(=O)N[C@H](C(=O)NCC(=O)N[C@@H](CO)C(=O)N[C@@H](CC(N)=O)C(=O)N[C@H](C(=O)N1CCC[C@H]1C(N)=O)[C@@H](C)O)C(C)C)[C@@H](C)O)N(C)C(=O)[C@H](C)NC(=O)CN(C)C(=O)[C@H](Cc1ccccc1)NC(=O)[C@H](CO)NC(=O)[C@H](CO)NC(=O)[C@H](CCCNC(=N)N)NC(=O)[C@H](Cc1c[nH]cn1)NC(=O)[C@H](CC(C)C)NC(=O)[C@H](Cc1ccccc1)NC(=O)[C@H](Cc1c[nH]cn1)NC(=O)[C@H](C)NC(=O)[C@H](CC(C)C)NC(=O)[C@H](CCCNC(=N)N)NC(=O)[C@H](CCC(=O)O)NC(=O)[C@@H](NC(=O)[C@H](C)NC(=O)[C@@H]1CCCNC(=O)C[C@H](NC(=O)[C@H](CCCNC(=N)N)NC(=O)CC[C@H](NC(=O)CCCCCCCCCCCCCCCCCCC(=O)O)C(=O)O)C(=O)NCC(=O)N[C@@H]([C@@H](C)O)C(=O)N[C@@H](C)C(=O)N[C@@H]([C@@H](C)O)C(=O)N1)[C@@H](C)O` [Compound 7, [19CD]-isoGlu-RD()GTAT-Orn()-ATERLAHFLHRSSF-Gly(Me)-A-Ile(Me)-LSSTEVGSNTP-NH2] ({C20 diacid-γGlu}-RDGTAT[Orn]ATERLAHFLHRSSF[Sar]A[NMeI]LSSTEVGSNTP-NH2; lactam 2-7), for which the values for the EC50 in assay [1] and in assay [2] were 0.289 nM and 0.032 nM, respectively.
In the same order, the values of `CC[C@H](C)[C@@H](C(=O)N1CCC[C@H]1C(=O)N[C@@H](CO)C(=O)N[C@@H](CO)C(=O)N[C@H](C(=O)N[C@@H](CCC(=O)O)C(=O)N[C@H](C(=O)NCC(=O)N[C@@H](CO)C(=O)N[C@@H](CC(N)=O)C(=O)N[C@H](C(=O)N1C[C@H](O)C[C@H]1C(N)=O)[C@@H](C)O)C(C)C)[C@@H](C)O)N(C)C(=O)[C@H](C)NC(=O)CN(C)C(=O)[C@H](Cc1ccccc1)NC(=O)[C@H](CO)NC(=O)[C@H](CO)NC(=O)[C@H](CCCNC(=N)N)NC(=O)[C@H](CCC(N)=O)NC(=O)[C@H](CC(C)C)NC(=O)[C@H](Cc1ccccc1)NC(=O)[C@H](Cc1c[nH]cn1)NC(=O)[C@H](C)NC(=O)[C@H](CC(C)C)NC(=O)[C@H](CCCNC(=N)N)NC(=O)[C@H](CCC(N)=O)NC(=O)[C@@H](NC(=O)[C@H](C)NC(=O)[C@@H]1CCCNC(=O)C[C@H](NC(=O)[C@H](CCCNC(=N)N)NC(=O)CC[C@H](NC(=O)CCCCCCCCCCCCCCCCCCC(=O)O)C(=O)O)C(=O)NCC(=O)N[C@@H]([C@@H](C)O)C(=O)N[C@@H](C)C(=O)N[C@@H]([C@@H](C)O)C(=O)N1)[C@@H](C)O` [Compound 9, [19CD]-isoGlu-RD()GTAT-Orn()-ATQRLAHFLQRSSF-Gly(Me)-A-Ile(Me)-PSSTEVGSNT-Hyp-NH2] ({C20 diacid-γGlu}-RDGTAT[Orn]ATQRLAHFLQRSSF[Sar]A[NMeI]PSSTEVGSNT[Hyp]-NH2; lactam 2-7) are 0.027 nM and 0.013 nM.
Turning to `CC[C@H](C)[C@@H](C(=O)N[C@@H](CC(C)C)C(=O)N[C@@H](CO)C(=O)N[C@@H](CO)C(=O)N[C@H](C(=O)N[C@@H](CCC(=O)O)C(=O)N[C@H](C(=O)NCC(=O)N[C@@H](CO)C(=O)N[C@@H](CC(N)=O)C(=O)N[C@H](C(=O)N1C[C@H](O)C[C@H]1C(N)=O)[C@@H](C)O)C(C)C)[C@@H](C)O)N(C)C(=O)[C@H](C)NC(=O)CN(C)C(=O)[C@H](Cc1ccccc1)NC(=O)[C@H](CO)NC(=O)[C@H](CO)NC(=O)[C@H](CCCNC(=N)N)NC(=O)[C@H](CCC(N)=O)NC(=O)[C@H](CC(C)C)NC(=O)[C@H](Cc1ccccc1)NC(=O)[C@H](Cc1c[nH]cn1)NC(=O)[C@H](C)NC(=O)[C@H](CC(C)C)NC(=O)[C@H](CCCNC(=N)N)NC(=O)[C@H](CCC(=O)O)NC(=O)[C@@H](NC(=O)[C@H](C)NC(=O)[C@@H]1CCCCNC(=O)C[C@H](NC(=O)[C@H](CCCNC(=N)N)NC(=O)CC[C@H](NC(=O)CCCCCCCCCCCCCCCCCCC(=O)O)C(=O)O)C(=O)NCC(=O)N[C@@H](CCC(=O)O)C(=O)N[C@@H](C)C(=O)N[C@@H]([C@@H](C)O)C(=O)N1)[C@@H](C)O` [Compound 12, [19CD]-isoGlu-RD()GEATK()ATERLAHFLQRSSF-Gly(Me)-A-Ile(Me)-LSSTEVGSNT-Hyp-NH2] ({C20 diacid-γGlu}-RDGEATKATERLAHFLQRSSF[Sar]A[NMeI]LSSTEVGSNT[Hyp]-NH2; lactam 2-7), the figures for the EC50 in assay [1] and in assay [2] were 0.893 nM and 0.999 nM, respectively.
For `CC[C@H](C)[C@@H](C(=O)N[C@@H](CC(C)C)C(=O)N[C@@H](CO)C(=O)N[C@@H](CO)C(=O)N[C@H](C(=O)N[C@@H](CCC(=O)O)C(=O)N[C@H](C(=O)NCC(=O)N[C@@H](CO)C(=O)N[C@@H](CC(N)=O)C(=O)N[C@H](C(=O)N1C[C@H](O)C[C@H]1C(N)=O)[C@@H](C)O)C(C)C)[C@@H](C)O)N(C)C(=O)[C@H](C)NC(=O)CN(C)C(=O)[C@H](Cc1ccccc1)NC(=O)[C@H](CO)NC(=O)[C@H](CO)NC(=O)[C@H](CCCNC(=N)N)NC(=O)[C@H](CCC(N)=O)NC(=O)[C@H](CC(C)C)NC(=O)[C@H](Cc1ccccc1)NC(=O)[C@H](Cc1c[nH]cn1)NC(=O)[C@H](C)NC(=O)[C@H](CC(C)C)NC(=O)[C@H](CCCNC(=N)N)NC(=O)[C@H](CCC(=O)O)NC(=O)[C@@H](NC(=O)[C@H](C)NC(=O)[C@@H]1CCCCNC(=O)C[C@H](NC(=O)[C@H](CCCNC(=N)N)NC(=O)CC[C@H](NC(=O)CCCCCCCCCCCCCCCCCCC(=O)O)C(=O)O)C(=O)NCC(=O)N[C@@H]([C@@H](C)O)C(=O)N[C@@H](CC(C)C)C(=O)N[C@@H]([C@@H](C)O)C(=O)N1)[C@@H](C)O` [Compound 13, [19CD]-isoGlu-RD()GTLTK()ATERLAHFLQRSSF-Gly(Me)-A-Ile(Me)-LSSTEVGSNT-Hyp-NH2] ({C20 diacid-γGlu}-RDGTLTKATERLAHFLQRSSF[Sar]A[NMeI]LSSTEVGSNT[Hyp]-NH2; lactam 2-7) the same measures were 1.41 nM and 0.456 nM.
In the same order, the values of `CC[C@H](C)[C@@H](C(=O)N[C@@H](CC(C)C)C(=O)N[C@@H](CO)C(=O)N[C@@H](CO)C(=O)N[C@H](C(=O)N[C@@H](CCC(=O)O)C(=O)N[C@H](C(=O)NCC(=O)N[C@@H](CO)C(=O)N[C@@H](CO)C(=O)N[C@H](C(=O)N1C[C@H](O)C[C@H]1C(N)=O)[C@@H](C)O)C(C)C)[C@@H](C)O)N(C)C(=O)[C@H](C)NC(=O)CN(C)C(=O)[C@H](Cc1ccccc1)NC(=O)[C@H](CO)NC(=O)[C@H](CO)NC(=O)[C@H](CCCNC(=N)N)NC(=O)[C@@H](NC(=O)[C@H](CC(C)C)NC(=O)[C@H](Cc1ccccc1)NC(=O)[C@H](CCCC(=O)O)NC(=O)[C@H](C)NC(=O)[C@H](CC(C)C)NC(=O)[C@H](CCCNC(=N)N)NC(=O)[C@H](CCC(=O)O)NC(=O)[C@@H](NC(=O)[C@H](C)NC(=O)[C@@H]1CCCNC(=O)C[C@H](NC(=O)[C@H](CCCNC(=N)N)NC(=O)CC[C@H](NC(=O)CCCCCCCCCCCCCCCCCCC(=O)O)C(=O)O)C(=O)NCC(=O)N[C@@H]([C@@H](C)O)C(=O)N[C@@H](C)C(=O)N[C@@H]([C@@H](C)O)C(=O)N1)[C@@H](C)O)[C@@H](C)O` [Compound 22, [19CD]-isoGlu-RD()GTAT-Orn()-ATERLA-Aad-FLTRSSF-Gly(Me)-A-Ile(Me)-LSSTEVGSST-Hyp-NH2] ({C20 diacid-γGlu}-RDGTAT[Orn]ATERLA[Aad]FLTRSSF[Sar]A[NMeI]LSSTEVGSST[Hyp]-NH2; lactam 2-7) are 0.474 nM and 0.051 nM.

By EC50 is commonly meant the concentration that produces a half-maximal response.
